According to US20030190368A1, “METHODS OF DIAGNOSIS AND TRIAGE USING CELL ACTIVATION MEASURES” (priority 1998, published 2003):
“Also recorded” adds a separate entry of the source.

What was measured:
[1] = system: human neutrophils; assay: Neutrophil response to fluid shear-stress in vitro; format: cell-based
Description: In these experiments the shear-stress was kept sufficiently low (˜1 dyn/cm2) to avoid significant viscoelastic cell deformation. Fresh leukocytes from pin-pricked blood of healthy volunteers were collected in Vacutainer tubes (sodium heparin pre-treated, Becton Dickinson, Franklin Lakes, N.J.). The red blood cells were allowed to sediment at room temperature for about 30 minutes. The supernatant mixture of 1 part platelets and leukocytes was resuspended in 20 parts Plasma Lyte (Baxter Healthcare Corp., Deerfield, Ill.). Neutrophils, monocytes and lymphocytes were identified by their morphology (125× magnification). All experiments were performed within four hours following blood collection.
100 μl of the cell preparation was deposited into a small chamber with a transparent bottom on an inverted microscope (Leitz Diavert, Germany) with a 50× objective. […]
Filmed neutrophils presented various responses to shear-stress. In order to quantify the results neutrophil response was divided into three categories: […]

[2] = system: rats subjected to SAO shock; assay: Splanchnic arterial occlusion (SAO) shock with Futhan pretreatment; format: in vivo, rat
Source text: Rats randomly selected were weighed and anesthetized, and arterial and venous catheters were inserted which were used for blood pressure measurements and anesthesia, respectively. […] At the termination of the experiments arterial blood was drawn for determination of plasma peroxide concentration using a peroxide electrode measurement technique.
Male Wistar rats (250-320 g) were randomly divided into SAO shock (n=7) and SAO shock sham groups (n=6). Animals were cannulated via the femoral arteries and vein under general anesthesia using pentobarbital (50 mg/kg i.m.). No heparin was injected other than that needed to ensure open catheter lines (10U/ml Plasma-Lyte). One femoral artery was connected up to monitor continuous mean arterial pressure (MAP), while the other was used for the collection of blood samples. […] MAP and heart rate were recorded.

[3] = system: rats; assay: Bolus injection of pancreatic homogenate (mock SAO shock); format: in vivo
Description: A bolus injection of incubated pancreatic homogenate was tested for its ability to lead to circulatory shock in the rat. The ability of Futhan pretreatment to mitigate shock induced in this manner was also tested. A mock SAO shock protocol was repeated as previously described, with either 60 min Futhan or saline pretreatment and a 2 ml bolus injection of either pancreatic homogenate or low-molecular weight pancreatic homogenate injected in lieu of arterial clamping.
The SAO shock experiments were repeated with the bolus injection of pancreatic homogenate in an effort to simulate the “unclamping” of the arteries and liberation of pancreatic components into the circulation instead of the actual ischemia/reperfusion of the splanchnic region. The low-molecular weight (2 ml) as well whole homogenate (2 ml) were tested for their ability to induce hypotension and cause circulatory shock. The ability of Futhan to counter the effects of the injection of pancreatic homogenate was also tested as in the SAO shock protocol. At the termination of these experiments arterial blood was drawn for the determination of plasma peroxide concentration using the peroxide electrode measurement technique.

[4] = pH and solubility of Futhan; format: physicochemical
Description: The reasons for the ineffectiveness of Futhan in ameliorating SAO shock in initial experiments appeared to be due to the pH of Futhan in solution, which is approximately 3.5 at the concentration of I mg/ml in 5% glucose-deionized (DI) water as per the manufacturer's instructions. Under the established protocol, approximately 2 ml of this solution were injected at the rate of 0.05 ml every 5 minutes into an approximate rat blood volume of 20 ml. In sham-shocked animals (not reported here) the buffering capacity of blood is able to absorb any perturbations in pH. In shocked animals, however, the pH buffering capacity, especially of the pancreas and small intestine, is severely compromised. Thus, the injection of Futhan would contribute to irreversible acidosis. […] Although the animals recovered from these transient depressions of MAP, Futhan injected animals typically expressed a lower MAP than the saline-injected group. This difference was not significant.

[5] = system: neutrophils; conditions: cited from earlier work

Q: For `CS(=O)(=O)O.CS(=O)(=O)O.N=C(N)Nc1ccc(C(=O)Oc2ccc3cc(C(=N)N)ccc3c2)cc1` [Futhan, 6-amidino-2-naphthyl p-guanidinobenzoate dimethanesulfonate], which “effect of Futhan on neutrophil activation in shear-stress test” value ([1]; 10 μl Futhan 0.05 and 0.13 mg/ml in 5% glucose + 10 μl pig pancreatic homogenate + 80 μl cells) is on record?
A: Its value is “slightly pro-inflammatory effect”.

Q: What about the “complete response to shear stress of Futhan-treated neutrophils” value ([1]; Futhan 0.05 and 0.13 mg/ml + pig pancreatic homogenate) of the same compound?
A: Its value is “no Futhan-treated neutrophil exhibited a complete response”.

Q: And the “MAP and survival time, small bolus regimen” value ([2]; 0.05 ml bolus every 5 minutes, 1, 3.3, 10, 20 mg Futhan/kg body wt, pretreatment 30 or 60 min)?
A: Its value is “uniformly unable to restore MAP or increase survival times”.

Q: What about the “blood pressure effect of Futhan injection” value ([2]; 0.05 ml doses) of the same compound?
A: Its value is “transient hypotension”.

Q: What about the “mean arterial pressure after removal of arterial clamps” value ([2]; Futhan 3.3 mg/kg body wt/hour i.v. infusion pump, 60 min pretreatment, vs saline) of the same compound?
A: Its value is “significant reduction in the fall of blood pressure”.

Q: And the “survival / mortality after SAO shock” value ([2]; Futhan 3.3 mg/kg body wt/hour infusion, 60 min pretreatment, vs saline controls, dimethanesulfonate)?
A: Its value is “significant increase in survival; also recorded: prevented mortality”.

Q: What about the “circulating plasma peroxide after SAO shock” value ([2]; Futhan 3.3 mg/kg body wt/hour infusion, vs control animals) of the same compound?
A: Its value is “significantly lower levels of circulating peroxide production”.

Q: And the “plasma peroxide formation after SAO shock, small bolus regimen” value ([2]; initial experiments, bolus injections)?
A: The value was “ineffective”.

Q: And the “mortality after pancreatic homogenate injection in Futhan-pretreated rats” value ([3]; 60 minute post-injection observation period, Futhan 3.3 mg/kg body wt/hr)?
A: The value was “None of the Futhan-treated group died”.

Q: And the “MAP after pancreatic homogenate injection in Futhan-pretreated rats” value ([3]; Futhan 3.3 mg/kg body wt/hr)?
A: Its value is “MAP returned to nearly initial values”.

Q: What about the “blood pressure effect of Futhan infusion pretreatment” value ([3]; infusion pump 3.3 mg/kg body wt/hr) of the same compound?
A: The value was “depression of MAP”.

Q: What about the “pH of Futhan in solution” value ([4]; I mg/ml in 5% glucose-deionized (DI) water) of the same compound?
A: The value was “approximately 3.5”.

Q: And the solubility ([4]; alcohol, rat serum, DMSO, balanced Tris (Trizma) buffer at physiologic pH)?
A: The solubility was “insoluble”.

Q: What about the free radical scavenging [5] of the same compound?
A: Its free radical scavenging is “does not possess any free radical scavenging effects”.

Q: What about the “zymosan-induced chemiluminescence activation by neutrophils” value ([5]; in vitro) of the same compound?
A: The value was “inhibited zymosan-induced chemiluminescence activation by neutrophils”.
